From the supplement of paper PMC10307832

What was measured:
[1] = compound: NC(=O)c1ccc(N(C(N)=O)c2c(F)cccc2F)nc1-c1ccc(F)cc1F [VX-702] + Cc1cc(Nc2cc(N3CCN(C)CC3)nc(Sc3ccc(NC(=O)C4CC4)cc3)n2)n[nH]1 [Tozasertib] (partner 0.1 µM); assay: relative viability (nuclei count vs DMSO), 5 days (fraction); higher = more cells survive
Summary of the method: (§1)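 Dosing by pin tool came one day after lung cancer cell lines were seeded in 1536-well plates, using either one drug or a fixed anchor-drug dose plus five library-drug doses (not always all listed) in √10 steps. After 5 days, nuclei were counted on 4× images. Relative viability is treated-well nuclei count divided by vehicle-well nuclei count, and values are medians of duplicate plates.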

[2] = compound: CC(C)(C)c1nc(-c2cccc(NS(=O)(=O)c3c(F)cccc3F)c2F)c(-c2ccnc(N)n2)s1 [Dabrafenib] + COc1cc2c(Oc3ccc(NC(=O)C4(C(=O)Nc5ccc(F)cc5)CC4)cc3F)ccnc2cc1OCCCN1CCOCC1 [Foretinib] (partner 0.25 µM); assay: as above
Summary of the method: as §1

Cell Line	relative viability ([1]; first compound 0.02 µM)	relative viability ([1]; first compound 0.2 µM)	relative viability ([1]; first compound 0.6325 µM)	relative viability ([1]; first compound 2 µM)	relative viability ([2]; first compound 0.009487 µM)	relative viability ([2]; first compound 0.03 µM)	relative viability ([2]; first compound 0.09487 µM)	relative viability ([2]; first compound 0.3 µM)	relative viability ([2]; first compound 0.003 µM)
NCI-H322M	0.486	0.506	0.496	0.508	1.19	0.75	0.879	0.945	–
HCC-366	0.156	0.095	0.0851	0.0835	0.944	0.812	0.875	0.891	0.894
NCI-H1355	0.497	0.514	0.593	0.631	0.981	0.935	0.809	0.947	–
LC-2-ad	0.375	0.4	0.465	0.497	1.09	0.82	0.922	1.1	–
NCI-H2087	0.277	0.236	0.284	0.281	1.04	0.988	0.959	1.09	–
BEN	0.532	0.432	0.481	0.55	0.699	–	0.569	0.713	–
NCI-H2228	0.314	0.319	0.199	0.23	0.95	0.797	0.749	0.97	–
HCC-827	0.427	0.396	0.387	0.393	1.04	0.876	–	1.03	1.11
IA-LM	–	–	–	–	1.08	1.08	0.977	1.13	1.13
NCI-H522	0.522	0.551	0.502	0.588	–	–	–	–	–
H3255	0.576	0.792	0.655	0.8	0.897	1.09	0.667	0.839	0.688
NCI-H838	0.233	0.285	0.303	0.291	1.06	0.801	0.923	1.1	1
NCI-H1993	0.525	0.591	0.623	0.806	0.852	0.64	0.71	0.901	0.762
SK-MES-1	0.92	0.944	0.914	0.995	0.905	1	0.796	0.995	0.653
NCI-H661	0.35	0.345	0.352	0.35	0.983	0.97	1.01	1.01	1.01
NCI-H1650	0.353	0.305	0.353	0.494	1.3	0.895	1.45	1.71	1.03
ABC-1	0.152	0.162	0.18	0.207	1.09	0.866	1.02	1.26	1.03
LU99A	0.315	0.25	0.257	0.263	0.702	0.715	0.756	0.79	0.942
ChaGo-K-1	0.214	0.23	0.223	0.225	0.902	0.906	0.883	0.95	1.05
NCI-H2170	0.722	0.696	0.753	0.871	0.539	0.961	1.01	1.11	1.03
NCI-H2347	0.592	–	0.505	0.521	1.01	–	–	0.932	–
NCI-H1437	0.412	0.432	0.405	0.45	1.27	1.25	1.23	1.26	1.26
CAL-12T	0.369	0.31	0.273	0.398	1.09	1.11	1.11	1.44	1.07
NCI-H1651	0.728	0.753	0.624	0.829	0.728	0.631	0.799	0.761	0.725
RERF-LC-KJ	0.538	0.477	0.541	0.463	0.859	0.845	0.935	1.09	0.854
EKVX	0.381	0.36	0.379	0.423	0.603	0.793	0.886	0.987	0.457
EMC-BAC-2	0.349	0.278	0.272	0.304	1.01	0.766	0.924	1.06	1.01

Cell Line	relative viability ([1]; first compound 0.02 µM)	relative viability ([1]; first compound 0.2 µM)	relative viability ([1]; first compound 0.6325 µM)	relative viability ([1]; first compound 2 µM)	relative viability ([2]; first compound 0.009487 µM)	relative viability ([2]; first compound 0.03 µM)	relative viability ([2]; first compound 0.09487 µM)	relative viability ([2]; first compound 0.3 µM)	relative viability ([2]; first compound 0.003 µM)
PC-3 [JPC-3]	0.883	0.896	0.922	0.957	1.09	1.1	0.997	1.01	1
HCC-78	0.42	0.456	0.325	0.465	0.633	0.537	0.632	0.581	–
NCI-H647	0.323	0.248	0.208	0.436	1.16	1.01	1.05	1.38	1.35
NCI-H1666	0.593	–	0.586	0.583	0.944	0.951	0.969	1.1	0.907
NCI-H3122	0.328	0.34	0.379	0.49	0.959	0.935	0.904	0.97	1.04
NCI-H520	0.443	0.385	0.434	0.55	0.78	0.455	0.74	0.661	0.909
HCC-44	0.765	0.893	1.05	1.3	–	–	–	–	–
NCI-H1623	0.444	0.415	0.437	0.426	0.869	0.846	0.829	1.12	–
NCI-H1915	0.411	0.43	0.42	0.46	1.08	1.09	0.87	0.949	1.2
NCI-H358	0.0998	0.0877	0.0872	0.115	0.862	0.815	0.771	0.76	0.662
NCI-H1395	0.686	0.767	0.75	0.966	0.892	1.09	0.874	0.82	0.997
NCI-H2126	0.816	0.859	0.783	1.04	1.22	1.15	1	1.43	1.15
NCI-H596	0.8	0.859	0.87	1.09	0.928	0.575	0.686	0.861	–
NCI-H23	0.446	0.334	0.37	0.486	1.04	0.906	0.878	0.873	–
NCI-H650	0.662	–	0.801	0.893	0.959	0.793	0.734	0.585	–
Calu-6	–	–	–	–	0.964	0.84	0.84	0.654	0.878
LCLC-103H	0.405	0.355	0.456	0.541	0.791	0.737	0.804	0.849	0.762
NCI-H441	0.722	0.546	0.478	0.641	1.11	0.941	1.05	0.843	–
UMC-11	0.202	0.207	0.186	0.198	1.12	1.06	0.984	1.13	1.13
LK-2	0.153	0.173	0.157	0.168	1.17	–	1.28	1.26	1.14
COR-L23	0.202	0.231	0.171	0.244	0.982	0.873	0.882	0.935	0.947
NCI-H2405	0.816	0.724	0.717	0.726	0.985	–	0.949	1.07	–
NCI-H2342	0.527	0.468	0.484	0.524	1.18	0.954	1.09	1.2	1.04
HOP-62	0.474	0.37	0.41	0.373	1.1	1.16	0.969	1.12	1.12
NCI-H1975	0.792	0.724	0.713	0.934	0.907	0.922	0.849	0.957	0.965
NCI-H2085	0.847	0.762	0.864	0.789	0.975	0.981	0.899	1.08	0.984
NCI-H460	0.665	0.54	0.614	0.159	1.01	0.961	0.933	0.993	0.949

Cell Line	relative viability ([1]; first compound 0.02 µM)	relative viability ([1]; first compound 0.2 µM)	relative viability ([1]; first compound 0.6325 µM)	relative viability ([1]; first compound 2 µM)	relative viability ([2]; first compound 0.009487 µM)	relative viability ([2]; first compound 0.03 µM)	relative viability ([2]; first compound 0.09487 µM)	relative viability ([2]; first compound 0.3 µM)	relative viability ([2]; first compound 0.003 µM)
NCI-H1755	0.599	0.592	0.597	0.653	0.894	0.767	0.876	0.911	0.879
PC-14	0.559	0.527	0.551	0.587	0.972	0.933	0.979	0.958	0.861
201T	0.959	0.921	0.937	0.914	1.2	1.12	1.14	1.26	1.11
COR-L 105	0.225	0.338	0.353	0.355	1.32	1.18	1.11	1.41	0.971
A-427	0.241	0.169	0.232	0.221	1.24	1.14	0.87	1.01	–
NCI-H1734	0.277	0.248	0.236	0.222	0.963	0.73	0.811	0.965	–
A549	–	–	–	–	0.988	0.911	0.988	0.975	0.979
NCI-H1944	0.252	0.245	0.252	0.253	0.887	0.948	0.827	0.85	0.832
LOU-NH91	0.75	0.657	0.677	0.628	1.01	0.894	0.918	0.958	0.858
NCI-H2009	0.765	0.729	0.728	0.988	1.18	1.24	0.995	0.911	1.21
NCI-H1563	–	–	–	–	0.981	0.824	1.04	1.01	0.856
NCI-H1299	–	–	–	–	1.09	1.07	1.03	1.08	1.05
HCC-15	0.402	0.322	0.408	0.53	1.07	1.08	0.852	1.03	0.944
NCI-H727	0.738	0.809	0.572	0.665	0.886	0.601	0.947	1.1	–
NCI-H1648	0.419	0.42	0.397	0.426	–	–	–	–	–
EPLC-272H	0.345	0.235	0.418	0.289	0.811	0.619	0.587	0.738	0.671
SW 1573	0.145	0.168	0.173	0.243	0.992	0.806	1.01	1.05	0.757
NCI-H1793	0.344	0.309	0.248	0.322	0.93	–	–	0.598	–
LXF-289	0.208	0.188	0.214	0.175	1.03	0.993	0.931	1.01	1.01
NCI-H2023	0.264	0.308	0.296	0.38	0.922	0.796	0.877	1.02	0.866
HARA	0.113	0.0909	0.118	0.117	0.906	–	0.78	0.972	0.907
NCI-H1703	–	–	–	–	0.327	0.34	0.334	0.447	0.354
SK-LU-1	0.337	0.315	0.311	0.476	0.848	0.633	0.64	0.757	–
EBC-1	–	–	–	–	0.0889	0.103	0.0949	0.108	0.102
LCLC-97TM1	0.175	0.183	0.301	0.252	0.99	0.972	0.864	0.953	0.938
